According to patent publication US12360118B2, “Method for protein kinase activity ranking” (KINOMICA LIMITED, priority 2015, dated 2025):

Columns and labels:
[1] = test system: eight haematological cell-lines; test: Viability of haematological cell-lines (Guava ViaCount) and sensitivity coefficient (SC); assay type: cell-based; settings: nine kinase inhibitors of Table 1
Protocol: B-cell lymphoma and leukemia cell-lines were routinely maintained in RPMI-1640 medium supplemented with 10% fetal-bovine serum (FBS) and 100 U·mL^−1 penicillin/streptomycin (P/S). Cells were maintained at a confluency of 0.5-2.0×10^6 cells·mL^−1. Stromal cells were grown in IMDM medium (supplemented with 10% FBS and 100 U·mL^−1 P/S) and maintained at a confluency of 2.0-30.0×10^6 cells in 175 cm^2 flasks. MS-5 conditioned IMDM medium was generated by growing stromal cells in IMDM for 3 days. All cells were kept at 37° C. in a humidified atmosphere at 5% CO2.
Cell-lines were seeded in 96 well plates (10,000 cells-well-), left overnight and treated with vehicle, or 1 to 1000 nM of AZD-5438 (CDK2i;), GF-109203X (PKCαi; Tocris), PF-3758309 (PAKi; Calbiochem), Trametinib (MEKi; Selleckchem), MK-2206 (AKTi; Selleckchem), KU-0063794 (mTORi; Chemdea) or TAK 715 (P38αi;). Cells were also treated with 0.01 to 10 μM of PKC-412 (PKC/Flt3i; Tocris) or 0.1 to 10 μM of TBB (CK2i; Sigma). After 72 h, cells were stained with Guava ViaCount reagent (Millipore) as indicated by the manufacturer and cell number and viability was measured using a Guava EasyCyte Plus instrument. […] After 72 h, cells were stained with Guava ViaCount reagent and cell number and viability was measured. […] Flow cytometry data were analyzed using CytoSoft (v2.5.7). IC50 values were calculated using Graphpad PRISM (v5.03). […]

[2] = test system: primary AML cells; test: Viability of primary AML cells (Guava ViaCount), IC50 and SC; assay type: cell-based, human; settings: 36 primary AML cases; threshold 50% reduction in viability at 1 μM
Protocol: All patients gave informed consent for the storage of their blood cells for research purposes. Each procedure was conducted in accordance with the East London and City Research Ethics Committee, as previously described (Miraki-Moud, F. et al. Blood 125, 4060-4068 (2015)). All studies comply with the rules of the Review Board and by the revised Helsinki protocol. Peripheral blood was extracted from AML patients at St Bartholomew's Hospital and mononuclear cells, isolated using Ficoll gradient followed by red cell lysis, were stored in liquid N2. Primary AML blasts were thawed following standard procedures: briefly, vials were defrosted at 37 C and exposed to 500 μg of DNAse (Sigma) for 5 minutes. […] Cell number and viability were determined by trypan blue staining using a Vi-CELL XR cell viability analyser (Beckman Coulter).
Cell-lines were seeded in 96 well plates (10,000 cells-well-), left overnight and treated with vehicle, or 1 to 1000 nM of AZD-5438 (CDK2i;), GF-109203X (PKCαi; Tocris), PF-3758309 (PAKi; Calbiochem), Trametinib (MEKi; Selleckchem), MK-2206 (AKTi; Selleckchem), KU-0063794 (mTORi; Chemdea) or TAK 715 (P38αi;). […] After 72 h, cells were stained with Guava ViaCount reagent (Millipore) as indicated by the manufacturer and cell number and viability was measured using a Guava EasyCyte Plus instrument. […] Flow cytometry data were analyzed using CytoSoft (v2.5.7). […]

[3] = molecular target: CDK2 (Homo sapiens, UniProt P24941); settings: off-target of the PKCα inhibitor; cited from earlier work
[4] = test system: tyrosine kinases; test: K-score (Kinase Activity Ranking) of cells after pervanadate treatment, LC-MS/MS phosphoproteomics; assay type: cell-based; settings: 1 mM sodium pervanadate, 30 min; lysates mixed with untreated lysates
Protocol: Technical replicates were averaged and peak areas for each phosphopeptide ion were then normalized to the sum of peptide intensities for each sample. […] Kinase Activity Ranking (KAR) was calculated for kinase K using the equation below (where m=the number of phosphorylation sites in the dataset matched to kinase K; α=the normalized intensity of the phosphorylation site i; l=the total number of phosphorylation sites in the dataset regardless of any kinase-substrate association; β=the normalized intensity of the phosphorylation site j; t=the total number of known target phosphorylation sites in the PhosphoSitePlus database for kinase K). […]
P31/Fuj cells were exposed to 1 mM sodium pervanadate or left untreated during 30 min (Sodium pervanadate was prepared by mixing 30% H2O2 and 100 mM Na3VO4 pH 8.0 at 1:100 ratio during 15 min). […] After homogenization and protein quantification, treated and untreated cell lysates were mixed to a final protein concentration of 1.0 μg·μL^−1. […]
We first investigated the reproducibility and quantitative nature of Kinase Activity Ranking (KAR, which produces K-scores) as a measure of net kinase activity. […] To test the reproducibility of the analysis, we performed this experiment on three independent occasions and each was analyzed in analytical triplicate. […]

Row | Compound | Ranking of the kinase inhibitors based on their SCs (sensitivity coefficients) [1] | Number of cases sensitive to this inhibitor only [2] | also measured
1 | Cc1nc(Nc2[nH]nc3c2CN(C(=O)N[C@H](CN(C)C)c2ccccc2)C3(C)C)c2sccc2n1 [PAKi, PF03758309] | ranked the highest | – | –
2 | O=C(O)c1ccc2c(c1)nc(Nc1cccc(Cl)c1)c1ccncc12 [CK2i, CX4945] | – | Five | –
3 | CN(C)CCCn1cc(C2=C(c3c[nH]c4ccccc34)C(=O)NC2=O)c2ccccc21 [PKCαi, GF109203X] | – | – | Inhibition of CDK2 [3]: high potency
4 | CC(=O)Nc1cccc(-n2c(=O)n(C3CC3)c(=O)c3c(Nc4ccc(I)cc4F)n(C)c(=O)c(C)c32)c1 [MEK1i, GSK1120212] | – | three | –
5 | Cc1ncc(-c2ccnc(Nc3ccc(S(C)(=O)=O)cc3)n2)n1C(C)C [CDK2i, AZD5438] | ranked the highest | – | –
6 | sodium pervanadate [pV] | – | – | Change of the K-Score of tyrosine kinases [4]: increase
